Key:
LL/2 cell line = experiment: mGI-101 and Axitinib in LL/2 allotransplanted tumor model; format: in vivo, C57BL/6 mice; settings: mGI-101 3 mg/kg IP, Axitinib 30 mg/kg PO
Method: Mouse-derived colorectal cancer cells, CT26 (Mus musculus, Colon adenocarcinoma), and mouse-derived lung cancer cells, LL/2 (Mus musculus, Lung adenocarcinoma), were purchased from ATCC (USA) and used for the test. The cells to be used for the test were thawed, mixed with RPMI1640 (A1049101, Thermofisher scientific) medium containing 10% FBS (fetal bovine serum, Gibco, 10082-147), and then placed in a cell culture flask, and cultured in a 37° C., 5% CO2 incubator. The cells were washed with PBS, and then the cells were isolated using Trypsin-EDTA (15090, Gibco), and centrifugation (125×g, 5 minutes) was performed to discard the supernatant, and then the cells were suspended in a new medium to obtain the cell suspension. The viability of the cells was identified, and then a cell line was prepared by diluting in a medium to a concentration of 5.0×10^6 cells/mL.
6-week-old male BALB/cAnHsd mice or C57BL/6NHsd mice were purchased and used for the test. After the end of the acclimation period of 7 days, the cells were transplanted into healthy animals. The cell suspension (5×10^6 cells/mL) was dispensed, and filled into a disposable syringe, and transplantation of the suspension was performed by subcutaneous administration at 0.1 mL/head in the right dorsal region of the animals. General symptoms were observed once a day during the engraftment and growth period after cell line transplantation.
After the inoculation of the cell line was performed, when the tumor size at the site to which the cell line was transplanted reached about 50 mm^3, the tumor size of each group was distributed as uniformly as possible according to the ranked tumor size.
The test substance was administered orally or intraperitoneally, and administered for 3 weeks depending on the composition of the test group. In the case of oral administration, the animals were fixed with the cervical spine skin fixation method, and administered directly into the stomach using a sonde for oral administration. In the case of intraperitoneal administration, the animals were fixed with the cervical spine skin fixation method, and administered intraperitoneally using a syringe equipped with a 26 gauge needle. The administration rate was not to exceed 200 μl/min.
Syngeneic model was prepared by subcutaneously transplanting the LL/2 cell line into C57BL/6 mice, and then the test substance was administered to evaluate the anticancer effect.

[1] = test system: CD8+ T cells and NK cells; experiment: Proliferation of CD8+ T cells and NK cells in mouse spleen; format: in vivo, C57BL/6 mice; settings: 40.5 μg i.p., spleen five days after injection; compared with GI101w
Method: 7-week-old C57BL/6 mice purchased from Orient Bio (Korea) were divided into 3 groups, each group including 3 mice, and PBS, GI101, or GI101w was injected intraperitoneally thereinto. Here, GI101 and GI101w were respectively prepared to be at 40.5 μg in 200 μl of PBS, and injected intraperitoneally thereinto. Five days after the injection, the spleens were removed from the mice of each group. The cells were isolated therefrom, and the total number of cells was measured using a hematocytometer. Splenocytes were examined for proportions of CD8+ T cells and NK cells therein, with FACS analysis using staining with APC-CD3ε antibody (Biolegend; 145-2C11), PE-NK1.1 antibody (Biolegend; PK136), and Pacific blue-CD8α antibody (BD; 53-6.7). As such, the numbers of CD8+ T cells and NK cells present in the spleen were calculated.

[2] = test system: immune cells in cancer tissues; experiment: Immune cell analysis in LL/2 cancer tissue (FACS); format: in vivo, C57BL/6 mice
Method: The mice of each group in Experimental Example 16.1 were sacrificed when the tumor volume reached an average of 200 mm^3, and cancer tissues were collected.
Thereafter, FACS analysis was performed in the same manner as Experimental Example 16.2. to analyze immune cells in the cancer tissues.

HCT116 cells = experiment: Cancer cell killing, GI-101 and Pertuzumab, HCT116 with NK cells; format: cell-based, human; settings: GI-101 0.4-100 nM, Pertuzumab 16.9 nM, 24 hours
Source text: This experiment was to evaluate the effect of killing cancer cells by treating HCT116 cells (human colon cancer cells) with the test substance GI-101 alone or in combination with Pertuzumab substance in an in vitro environment.
HCT116 cells were purchased from the Korea cell line bank and cultured in McCoy's 5A medium (ATCC) containing 10% FBS (Gibco) and 1% antibiotic/antifungal agent (Gibco). For use in cancer cell killing test, the cells were harvested using trypsin (Gibco), and then suspended in McCoy's 5A medium, and then dead cells and debris were removed using Ficoll (GE Healthcare Life Sciences) solution. The cells suspended in McCoy's 5A medium were carefully layered on ficoll solution. […]
In order to identify the effect of killing the cells, a CytoTox Green reagent ([…]™ CytoTox Green, Satorius) that binds to the DNA of cells to be killed was prepared in 1 μl per 1 mL of RPMI1640 medium containing 5% human AB serum (Sigma). The prepared medium was used for dilution of the test substance, and the effect of killing the cells could be quantitatively identified by staining the cells to be killed when the test substance was co-cultured with cancer cell lines and PBMCs. […]

“mGI101: fusion protein: mouse CD80, Ig hinge, Fc domain, linker, IL-2 variant (2M) (R38A, F42A); SEQ ID NO: 15” was tested, and the Tumor size (LL/2 cell line; Day 0, mean ± SD) was 55.70 ± 11.48 mm^3, the Tumor growth inhibition (LL/2 cell line; Day 2, mean ± SD) was −7.12 ± 34.31% and the Tumor size (LL/2 cell line; Day 2, mean ± SD) was 99.18 ± 19.96 mm^3. For the same substance, the Tumor growth inhibition (LL/2 cell line; Day 5, mean ± SD) was 1.83 ± 27.19%, the Tumor size (LL/2 cell line; Day 5, mean ± SD) was 179.58 ± 39.71 mm^3 and the Tumor growth inhibition (LL/2 cell line; Day 7, mean ± SD) was 12.67 ± 19.15%. The Tumor size (LL/2 cell line; Day 7, mean ± SD) was 409.37 ± 72.98 mm^3, the Tumor growth inhibition (LL/2 cell line; Day 9, mean ± SD) was 5.78 ± 24.08% and the Tumor size (LL/2 cell line; Day 9, mean ± SD) was 749.00 ± 174.47 mm^3. For the same substance, the Tumor growth inhibition (LL/2 cell line; Day 12, mean ± SD) was 6.89 ± 28.47%, the Tumor size (LL/2 cell line; Day 12, mean ± SD) was 1066.72 ± 307.18 mm^3 and the Tumor growth inhibition (LL/2 cell line; Day 14, mean ± SD) was 1.85 ± 36.39%. For the same substance, the Tumor size (LL/2 cell line; Day 14, mean ± SD) was 1608.00 ± 572.50 mm^3, the Tumor growth inhibition (LL/2 cell line; Day 16, mean ± SD) was 0.91 ± 39.37% and the Tumor size (LL/2 cell line; Day 16, mean ± SD) was 2200.03 ± 850.12 mm^3. It also gave a Tumor growth inhibition (LL/2 cell line; Day 19, mean ± SD) of −5.99 ± 39.91%, a Tumor size (LL/2 cell line; Day 19, mean ± SD) of 3223.87 ± 1191.11 mm^3 and a Tumor growth inhibition (LL/2 cell line; Day 21, mean ± SD) of −2.78 ± 32.04%. The Tumor size (LL/2 cell line; Day 21, mean ± SD) was 5431.08 ± 1673.60 mm^3.

For “GI101: fusion protein: human CD80 fragment, Ig hinge, Fc domain, linker, IL-2 variant (2M) (R38A, F42A); SEQ ID NO: 9”, the “proliferation of CD8+ T cells and NK cells in vivo” value [1] was “activated proliferation”, the “CD8+ T cells in cancer tissue” value ([2]; 0.1 mg/kg, compared with anti-PD-1 antibody alone) was “significant increase” and the “level of CD86 expression in macrophages and dendritic cells” value ([2]; all GI101 groups) was “increased level”. For the same substance, the “level of expression of IFN-γ” value ([2]; all GI101 groups, vs negative control) was “significantly increased level” and the “effect of killing cancer cells” value (HCT116 cells) was “excellent effect of killing cancer cells”.

— US11857601B2, “Pharmaceutical composition for cancer treatment comprising fusion protein including IL-2 protein and CD80 protein and anticancer drug” (GI INNOVATION, INC., priority 2020, dated 2024)
